{"source": "patent US10400263B2", "about": "“Tripeptide rhodamine compound” (Kingston Uninversity Higher Education Corporation, priority 2012, dated 2019)", "key": {"MSSA": {"system": "MSSA", "assay": "LGX staphylocoagulase fluorescence assay, MSSA isolates", "type": "cell-based, Staphylococcus aureus", "procedure": "(§1) Each sample was rinsed liberally in sterile 1×PBS and varying concentrations of bacterial suspension from 10^0-10^6 were generated by serial dilution in 1×PBS. Additionally, bacterial cultures were furthermore maintained on nutrient agar to assess the coagulase status of the isolate.\n(§2) To determine the effects of varying bacterial concentrations with respect to bacterial strains and concentrations of the compounds according to the present invention on staphylocoagulase activity, 100 and 50 μM solutions containing LGX were prepared in 1×PBS with the addition of 0.05 M Tris Buffer and 0.1 M NaCl to maintain a pH of 8.5 using LGX dissolved in MeOH so that final concentration of methanol was no more than 2.5%. Furthermore, an appropriate concentration (100 μM and 50 μM, respectively) of human prothrombin was added to the solution.\n(§3) The plate reader used was a Fluostar Optima, and the plates used were Nunclon Surface 96 well plates. Positive controls for each experiment was a strain of MRSA, and the negative control for each experiment was a strain of E. coli, both of which were picked at random to ensure there was no bias within the data. A 1:1 ratio of the LGX solution with PBS was also assayed as “LGX alone” sample, which has been designated as a black line on the graphs below. n=3 cultures were assayed in each case.\n(§4) Clinical isolates of Methicillin Resistant Staphylococcus Aureus (MRSA), Methicillin Sensitive Staphylococcus Aureus (MSSA), Staphylococcus Epidermidis, Eschericia coli and other staphyloccal species were cultured on nutrient agar prior to being grown overnight in nutrient broth under shaking conditions at 37° C. Each sample was rinsed liberally in sterile 1×PBS and varying concentrations of bacterial suspension from […] were generated by serial dilution in 1×PBS. Additionally, bacterial cultures were furthermore maintained on nutrient agar to assess the coagulase status of the isolate.\n(§5) To determine the effects of varying bacterial concentrations with respect to bacterial strains and LGX concentrations on staphylocoagulase activity, 100 and 50 μM solutions of LGX were prepared in 1×PBS with the addition of 0.05 M Tris Buffer and 0.1 M NaCl to maintain a pH of 8.5 using LGX dissolved in MeOH so that final concentration of methanol was no more than 2.5%. Furthermore, an appropriate concentration (100 μM and 50 μM, respectively) of human prothrombin was added to the solution. 90 μl of LGX solution in addition to each respective bacterial isolate at varying concentrations was added to a microtitre plate. […] The plate reader used was a Fluostar Optima, and the plates used were Nunclon Surface 96 well plates."}, "S. warneri": {"system": "S. warneri", "assay": "LGX system, S. warneri", "type": "cell-based", "procedure": "as §1\n(§6) To determine the effects of varying bacterial concentrations with respect to bacterial strains and concentrations of the compounds according to the present invention on staphylocoagulase activity, 100 and 50 μM solutions containing LGX were prepared in 1×PBS with the addition of 0.05 M Tris Buffer and 0.1 M NaCl to maintain a pH of 8.5 using LGX dissolved in MeOH so that final concentration of methanol was no more than 2.5%. […]\n(§7) The plate reader used was a Fluostar Optima, and the plates used were Nunclon Surface 96 well plates. […]\n(§8) To determine the effects of varying bacterial concentrations with respect to bacterial strains and LGX concentrations on staphylocoagulase activity, 100 and 50 μM solutions of LGX were prepared in 1×PBS with the addition of 0.05 M Tris Buffer and 0.1 M NaCl to maintain a pH of 8.5 using LGX dissolved in MeOH so that final concentration of methanol was no more than 2.5%. […] The plate reader used was a Fluostar Optima, and the plates used were Nunclon Surface 96 well plates."}, "MRSA and MSSA": {"system": "MRSA and MSSA", "assay": "LGX staphylocoagulase fluorescence assay, MRSA and MSSA together", "type": "cell-based, Staphylococcus aureus", "procedure": "as §1, §2, §3, §4, §5"}, "S. hominus": {"system": "S. hominus", "assay": "LGX system, S. hominus", "type": "cell-based", "procedure": "as §1, §6, §7, §8"}}, "data": [{"compound": "CC(C)[C@H](NC(=O)OC(C)(C)C)C(=O)N1CCC[C@H]1C(=O)N[C@@H](CCCNC(=N)N)C(=O)Nc1ccc2c(c1)Oc1cc(NC(=O)[C@H](CCCNC(=N)N)NC(=O)[C@@H]3CCCN3C(=O)[C@@H](NC(=O)OC(C)(C)C)C(C)C)ccc1C21OC(=O)c2ccccc21", "note": "(stereo partly drawn) [LGX, Rho-(Arg-Pro-Val-NHBoc)2]", "values": [{"measurement": "samples reaching maximum fluorescence", "setting": "MSSA; 50 μM LGX, MSSA 10^2, 6 hours", "result": "no samples reached maximum fluorescence"}, {"measurement": "samples reaching the maximum reading of 65,000 RFU within 2.5 hours", "setting": "MSSA; 50 μM LGX, MSSA 10^3", "result": 25, "unit": "%"}, {"measurement": "samples that had reached maximum fluorescence within 6 hours", "setting": "MSSA; 50 μM LGX, MSSA 10^3", "result": 60, "unit": "%"}, {"measurement": "samples failed to reach maximum fluorescence within 6 hours", "setting": "MSSA; 50 μM LGX, MSSA 10^5", "result": 5, "unit": "%"}, {"measurement": "samples reaching the maximum reading of 65,000 RFU within 2 hours", "setting": "MSSA; 50 μM LGX, MSSA 10^5", "result": 75, "unit": "%"}, {"measurement": "time by which maximum fluorescence level was reached", "setting": "MSSA; 50 μM LGX, MSSA 10^6", "result": "≤ 2", "unit": "h"}, {"measurement": "samples achieving a fluorescence reading of 20,000 within 1 hour", "setting": "MSSA; 100 μM LGX, MSSA 10^2", "result": 90, "unit": "%"}, {"measurement": "samples reached maximum fluorescence over a 6 hour time period", "setting": "MSSA; 100 μM LGX, MSSA 10^2", "result": 25, "unit": "%"}, {"measurement": "samples reached maximum fluorescence within 2 hours", "setting": "MSSA; 100 μM LGX, MSSA 10^2", "result": 5, "unit": "%"}, {"measurement": "samples reached maximum fluorescence within 4 hours", "setting": "MSSA; 100 μM LGX, MSSA 10^3", "result": 45, "unit": "%"}, {"measurement": "samples in which fluorescence reached its upper limits within 1 hours", "setting": "MSSA; 100 μM LGX, MSSA 10^4", "result": 70, "unit": "%"}, {"measurement": "samples remained below maximum fluorescence", "setting": "MSSA; 100 μM LGX, MSSA 10^4", "result": 20, "unit": "%"}, {"measurement": "LGX SYSTEM", "setting": "MSSA; MSSA", "result": "+"}, {"measurement": "LGX SYSTEM", "setting": "S. warneri", "result": "−"}, {"measurement": "isolates failed to reach a fluorescence reading of 20,000 within 30 minutes", "setting": "MRSA and MSSA; 50 μM LGX, 10^2 cell concentration of MRSA and MSSA", "result": 20, "unit": "%"}, {"measurement": "isolates failed to reach a fluorescence reading of 20,000 within 30 minutes", "setting": "MRSA and MSSA; 50 μM LGX, 10^3 cell concentration of MRSA and MSSA", "result": 5, "unit": "%"}, {"measurement": "time for fluorescence to reach a maximum", "setting": "MRSA and MSSA; 50 μM LGX, MRSA and MSSA 10^5, FIG. 13", "result": "approximately 3 hours"}, {"measurement": "fluorescence reading reached (almost instantaneous reaction)", "setting": "MRSA and MSSA; 50 μM LGX, MRSA and MSSA 10^6, FIG. 13", "result": "65,000 RFU"}, {"measurement": "samples above 20,000 fluorescence units after 1 hour", "setting": "MRSA and MSSA; 50 μM LGX, all concentrations of bacteria, MRSA and MSSA", "result": "more than 80%"}, {"measurement": "samples with a fluorescence reading greater than 20,000 within 30 minutes", "setting": "MRSA and MSSA; 100 μM LGX, 10^3 cell concentration and above", "result": 100, "unit": "%"}, {"measurement": "fluorescence reading reached (almost instantaneous reaction)", "setting": "MRSA and MSSA; 100 μM LGX, MRSA and MSSA 10^4 and 10^3, and MSSA 10^2, FIG. 14", "result": "65,000 RFU"}, {"measurement": "response compared with 100 and 500 μM coumarin system", "setting": "MRSA and MSSA; 100 μM LGX, MRSA and MSSA at 10^2, FIG. 12", "result": "superior response in terms of selectivity and speed"}, {"measurement": "lowest bacterial concentration at which presence of bacteria is detected", "setting": "MRSA and MSSA; no culturing, fluorescence 525 nm (ex 488 nm)", "result": "10^2"}, {"measurement": "sensitivity advantage over N-t-BOC-val-pro-arg-7-amido-4-methylcoumarin", "setting": "MRSA and MSSA; response at 10^2 Staphylococcus aureus units, 525 nm (ex 488 nm)", "result": "several orders of magnitude (10^4 bacteria)"}, {"measurement": "sensitivity relative to the existing commercial dye system", "setting": "MRSA and MSSA; staphylothrombin assay for detection of MRSA and MSSA, estimate", "result": 10, "unit": "times"}, {"measurement": "LGX SYSTEM", "setting": "S. hominus", "result": "−"}]}]}
